Values of other authors as cited in patent US9579322B2, “Methods for treating neurologic disorders” (EIP Pharma, LLC, priority 2014, dated 2017).

Settings: animals; cited from earlier work

NC(=O)c1ccc(N(C(N)=O)c2c(F)cccc2F)nc1-c1ccc(F)cc1F [VX-702]
blood brain barrier penetration: non-blood-brain-barrier-penetrant
